We go through 5 molecules from paper PMC9915956, “Identification of Potent Zika Virus NS5 RNA-Dependent RNA Polymerase Inhibitors Combining Virtual Screening and Biological Assays” (International Journal of Molecular Sciences, 2023).

For data set [1], the system named is Huh-7 cells. Description: WST-8 cell viability (cytotoxicity) assay. To be noted: Huh-7 cells. As for the experimental part: (§1) The WST-8 assay was used to evaluate the cytotoxicity of the compounds. Huh-7 cells (1 × 10^4 cells/well) were seeded in a 96-well plate and different concentrations of compounds were added the next day. After a 24 h incubation, the supernatant was discarded and WST-8 reagent (1:10 diluted by DMEM) was added. The cell viability was assessed using a Microplate Reader (ELx808, Biotek, North Chesterfield, VA, USA) at 450 nm.
A general note: Tetrazolium dyes change colour on reduction, which living cells bring about.

Another data set is described as follows: in vitro. To be noted: human. As to the method:
as §1

A further data set deals with dengue virus. The settings on record: by targeting OSBP; read-out: EC50 dengue virus replication; cited from earlier work.
The test system of another data set is ZIKV (SMGC-1). Description: Anti-ZIKV activity by FACS of ZIKV E protein-positive cells. In kind it is cell-based. The settings on record: Zika virus, read-out: EC50 anti-ZIKV activity (reduction of ZIKV E protein-positive cells). As to the method:
Huh-7 cells were infected with ZIKV (SMGC-1) and incubated with different concentrations of compounds. After 48 h, the cells were fixed and permeabilized, followed by staining with the FITC-anti-ZIKV E protein antibody. When detected by FACS, the FITC intensity in the given cell population reflected the ZIKV E protein-positive cells, indicting the cells infected with ZIKV.
Huh-7 cells were seeded into 24-well plates and infected with ZIKV (SMGC-1) at a multiplicity of infection (MOI) of 0.2. […] Chloroquine was used as a positive control. Cells were fixed and permeabilized for 20 min using a Fixation/Permeabilization Solution Kit. After washing, the cells were incubated with FITC-anti-ZIKV E protein antibody for 30 min. Then, ZIKV E protein-positive cells were detected in a FACS Analyzer and analyzed by FlowJo (TreeStar, Ashland, OR, USA). The EC50s of the compounds were calculated as the reduction ratio of ZIKV E protein-positive cells over the concentrations of the compounds.

Data set [2] deals with ZIKV sub-genomic replicon RNA. The settings on record: Hela cells, single concentration of 10 μM; cited from earlier work.
For data set [3], the target named is T1, ZIKV NS5 RdRp (Zika virus, UniProt A0A024B7W1). Description: Fluorescence-based alkaline phosphatase-coupled polymerase assay, RdRp enzymatic inhibition. In kind it is biochemical. The settings on record: compounds incubated with RdRp for 30 min; WT-RdRp; read-out: IC50 to inhibit RdRp activity. As for the experimental part: The activity of RdRp was measured by a fluorescence-based alkaline phosphatase-coupled polymerase assay established previously in our lab. Briefly, RdRp catalyzed the transfer of adenosine 5′-monophosphate from γ-(BBT)-ATP to the RNA chain, generating the byproduct BBTppi. Subsequently, BBTppi was hydrolyzed by alkaline phosphatase to fluorescent BBT (ex/em 430/560 nm).
T1 sequence (A0A024B7W1 2786-3423): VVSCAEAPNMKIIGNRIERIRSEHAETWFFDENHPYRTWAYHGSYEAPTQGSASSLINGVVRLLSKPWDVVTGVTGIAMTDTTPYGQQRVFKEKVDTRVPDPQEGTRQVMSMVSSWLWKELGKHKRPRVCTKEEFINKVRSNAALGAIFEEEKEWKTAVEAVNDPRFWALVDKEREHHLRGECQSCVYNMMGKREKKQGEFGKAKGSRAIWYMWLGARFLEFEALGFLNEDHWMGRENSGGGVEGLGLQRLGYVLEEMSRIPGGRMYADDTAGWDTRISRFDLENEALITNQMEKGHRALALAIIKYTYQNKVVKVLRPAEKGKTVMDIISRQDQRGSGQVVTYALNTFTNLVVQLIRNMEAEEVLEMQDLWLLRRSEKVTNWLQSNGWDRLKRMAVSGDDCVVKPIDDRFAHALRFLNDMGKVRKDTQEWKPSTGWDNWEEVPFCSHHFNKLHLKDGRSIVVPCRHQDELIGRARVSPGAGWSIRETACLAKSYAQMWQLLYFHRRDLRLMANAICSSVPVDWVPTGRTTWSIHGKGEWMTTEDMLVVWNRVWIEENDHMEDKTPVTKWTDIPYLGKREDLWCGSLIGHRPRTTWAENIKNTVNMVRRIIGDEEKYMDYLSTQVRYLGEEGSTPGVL
The plasmid pET30a-RdRp, constructed in our laboratory, was transformed into E. coli Transetta (DE3) for RdRp expression and purified. The bacteria were grown in ZYM-5052 culture medium. RdRp with the His tag was loaded on a Ni^2+ HisTrap chelating column and then eluted in a buffer containing imidazole in the ÄKTA system. The purified proteins were verified by SDS-PAGE and Western blotting. RdRp activity was analyzed using a fluorescence-based alkaline phosphatase-coupled polymerase assay. The inhibitory effect of the compounds against RdRp was evaluated using the protocol developed in our laboratory.

Data set [4] deals with Huh-7 cells. Details: method as in PMID 19760134. The settings on record: ≤ 10 μM; cited from earlier work.
Data set [5] has as its target T1, ZIKV NS5 RdRp. As to the kind of experiment: SPR binding to immobilized RdRp. To be noted: CM5 chip, 3.125–50 μM. Background: SPR reads the build-up and loss of mass on a sensor chip optically.
Description: Thus, SPR assays were carried out. RdRp protein was immobilized on a CM5 sensor chip through amine coupling.
The SPR was carried out using BIAcore T200 (GE Healthcare, Uppsala, Sweden) at 25 °C. RdRp was diluted by 10 mM sodium acetate (pH 4.5) and then immobilized on a CM5 sensor chip using an NHS/EDC amine-coupling kit in 1× PBS-P running buffer. Different concentrations (3.125–50 μM) of compounds flowed through the sensor chip surface and the RUs was detected. The equilibrium dissociation constant (KD) was fitted using the BIAcore Evaluation Software.

Read-outs that look alike come from different tables or passages of the source. A value given as a limit tells only on which side of the number the result lay.

For the molecule `Cc1cc2c(C(C)C)c(O)c(O)c(C=O)c2c(O)c1-c1c(C)cc2c(C(C)C)c(O)c(O)c(C=O)c2c1O` [GOS, Gossypol (acetic acid)], the “Cytotoxicity (in words) at 5 μM” value in the data set with Huh-7 cells [1] (WST-8, concentration of 5 μM) is “obvious cell toxicity”. Moreover, the CC50 at 24 h in the data set “in vitro” stood at 7.79 µM.

As to `CC[C@@H]([C@H](C)O)n1ncn(-c2ccc(N3CCN(c4ccc(OC[C@@H]5CO[C@@](Cn6cncn6)(c6ccc(F)cc6F)C5)cc4)CC3)cc2)c1=O` [POS, Posaconazole], the EC50 is 4.1 µM with dengue virus and 0.59 µM in the data set on ZIKV (SMGC-1) (Huh-7 cells, ZIKV (SMGC-1) MOI 0.2, 48 h, FACS). The “Effect on replication of ZIKV sub-genomic replicon RNA (in words)” value in data set [2] is “inhibit the replication”. Further, in the data set with Huh-7 cells [1] (WST-8, 24 h, ≤ 6.4 μM), the “Cytotoxicity (in words) at concentrations used in the anti-ZIKV assay” value is “low”. In “in vitro” (Huh-7 cells), this molecule registered a CC50 at 24 h of 101 µM.

Take `CCCCCCOC(=O)NC(=N)c1ccc(NCc2nc3cc(C(=O)N(CCC(=O)OCC)c4ccccn4)ccc3n2C)cc1` [DAB, Dabigatran etexilate]: the IC50 at ZIKV NS5 RdRp [3] was found to be 11.3 µM.

For `CCN(CC)CCCC(C)Nc1ccnc2cc(Cl)ccc12` (stereo not shown) [chloroquine, Chloroquine], the “Cytotoxicity to Huh-7 cells (in words)” value with Huh-7 cells [4] is “no significant cytotoxicity”. Further, the EC50 in the data set with ZIKV (SMGC-1) (Huh-7, 48 h) came to 2.8 µM.

With `CCC(C)n1ncn(-c2ccc(N3CCN(c4ccc(OCC5COC(Cn6cncn6)(c6ccc(Cl)cc6Cl)O5)cc4)CC3)cc2)c1=O` (stereo not shown) [ITR, Itraconazole], the “Binding to RdRp by SPR (in words)” value at ZIKV NS5 RdRp [5] is listed as “almost no binding signals”. Moreover, the CC50 at 24 h in the data set “in vitro” was above 100 µM. Further, the IC50 on ZIKV NS5 RdRp [3] is 1.82 µM.

As a reminder, the EC50 is the concentration giving half of the maximal effect. As a reminder, the IC50 is the midpoint of a concentration-inhibition curve.
